Tests used:
Type in all cases: cell-based
[1] = tested on: rare codon in EGFP reporter, HEK293T cells; test: LC-MS recoding efficiency of rare codons in EGFP reporter; conditions: TCG at position 151 of EGFP; 12× tRNA; serine/glycine-free medium; 500 μM unnatural amino acid
Experimental: The recoding translation system and the rare codon-bearing POI were co-transfected into HEK293T cells. Then, two methods were used to calculate the ncAA recoding rate: 1) LC-MS analysis: the protein of the POI mixture, including the fraction incorporated with ncAA and the fraction with NAA at rare codons, was purified by Ni2+-NTA beads and subjected to LC-MS analysis. The ncAA recoding rate was determined by the intensity of two fractions quantified by LC-MS. 2) TCO-PEG5000 mass tag labeling analysis: this method was suitable for quantifying the TetBu recoding rate in this work. When the protein mixture was incubated with TCO-PEG5000 mass tag, the protein incorporated with TetBu would be labeled by this mass tag and migrated much slower in SDS-PAGE.
When the recoding system (TetRS/PylTyyy) is co-expressed with a target protein carrying the recoding codon in HEK293T, the recoding codon can be translated into a natural amino acid by endogenous tRNA (Dec-tRNA), or recoding into TetBu by the engineered tRNA (Rec-tRNA), producing a mixture of protein byproducts (with a single-site mutation) and the target protein containing TetBu. Based on this, two methods were established to assess sense codon recoding efficiency: a) Liquid chromatography-mass spectrometry (LC-MS) for differentiates proteins based on molecular weight differences, and b) TCO-PEG5000 macromolecular label target proteins containing TetBu, which increases their molecular weight by 5 kDa. The shift in protein bands is detected via immunoblotting (FIG. 2).
(1) Transfection: Plasmids encoding the TetBu/PylTyyy recoding system (where xxx represents different codons and yyy represents different anticodons) were co-transfected with the plasmid mCherry-T2A-EGFP^N149XXX-6×His at a 1:1 (g:g) ratio. For a 10 cm dish, the total transfection mixture contained 20 μg DNA+[…] Lipofectamine 2000+2 mL Opti-MEM.
(2) Protein expression and purification: After 6 hours, the medium was replaced with fresh DMEM containing 200 μM TetBu for 40 hours to induce protein expression. Cells were lysed in 1 mL Modified RIPA Buffer, and the supernatant was purified using Ni-NTA beads.
(3) LC-MS analysis of recoding efficiency:Using a Waters Xevo G2-XS TOF Mass Spectrometer, the recoding efficiency of rare codons (CTA, GTA, CGT, CCG, GCG, ACG, and TCG) at the EGFP149 site was evaluated.
(2) Cell transfection and protein expression purification: HEK293T cells were seeded in 10 cm culture dishes and transfected at 60-70% confluency. For each transfection, […] of plasmid carrying mCherry-T2A-EGFPY151TCG-6×His was co-transfected with one of the following recoding system plasmids: chPhe_AcFRS/12×(U6-chPheTCGA), EcTyr_OmeYRS/12×(U6-EcTyrTCGA), or EcLeu_OmeYRS/12×(U6-EcLeuTCGA). After 6 hours, the medium was replaced with serine/glycine-free DMEM/F12 containing 500 μM of the respective unnatural amino acid. Following protein expression and purification, LC-MS was used to determine TCG recoding efficiency at position 151 of EGFP. Detailed transfection and purification protocols following section 2.2.1.2, with cell culture conditions in serine-free medium as described in Example 2.

EGFP F84TCG mutant = test: EGFP F84TCG fluorescence activation by UAA
Text: Using EGFP as an example, this example describes a general method for screening recoding sites and UAA types in protein activation regulated by UAA incorporation. In the absence of UAAs, the TCG recoding system decodes the TCG codon as serine (Ser). To maximize disruption towards protein function, we screened phenylalanine (Phe), tyrosine (Tyr), and tryptophan (Trp)—amino acids with the greatest structural divergence from Ser for potential incorporation. Following identification of Ser-substituted inactivation sites, we screened UAAs capable of rescuing protein activity, yielding optimal recoding system/UAA pairs (a-b of FIG. 22). […] This strategy was successfully extended to diverse proteins including fluorescent proteins (e.g., mCherry), enzymes (e.g., luciferase, kinases, peroxidases), and translation regulators (e.g., initiation factors, post-translational modification readers).

[2] = tested on: TCG codon, mammalian cells; test: TCG codon recoding efficiency of all amino acids (Table 1); conditions: TCG codon recoding of the unnatural amino acid with the aaRS and mutation of the same table line

Row | SMILES | Recoding rate (%) ([2]; numeric values) | Recoding rate (%) ([2]; class symbols) | further results
1 | CC(=O)NCCCC[C@H](N)C(=O)O [AcK] | – | – | recoding efficiency [1]: 78%
2 | CC(C)(C)OC(=O)NCCCC[C@H](N)C(=O)O [BocK, ε-N-tert-butyloxycarbonyllysine] | – | – | recoding efficiency [1]: 82%
3 | CCCC(=O)NCCCC[C@H](N)C(=O)O [Kbu] | – | – | recoding efficiency [1]: 74%
4 | C/C=C/C(=O)NCCCC[C@H](N)C(=O)O [Kcr, ε-N-crotonyl-lysine] | – | – | recoding efficiency [1]: 84%
5 | CCC(=O)NCCCC[C@H](N)C(=O)O [Kpr] | – | – | recoding efficiency [1]: 79%
6 | COc1ccc(C[C@H](N)C(=O)O)cc1 [OmeY, O-methyl-tyrosine] | – | – | concentration with detectable EGFP activation (EGFP F84TCG mutant): 0.00001 mM; time to fluorescence activation after UAA delivery (EGFP F84TCG mutant): ≤ 1 min; fluorescence enhancement upon UAA addition versus no UAA (EGFP F84TCG mutant; TCG-recoding system decoding OmeY): > 100 fold
7 | N[C@@H](Cc1ccc(I)cc1)C(=O)O [compound 370] | 64 | – | –
8 | N[C@@H](Cc1ccc(O)c(I)c1)C(=O)O [compound 371] | 73 | – | –
9 | N[C@@H](Cc1ccc(OS(=O)(=O)F)cc1)C(=O)O [compound 372] | 70 | – | –
10 | N[C@@H](Cc1ccc(OS(=O)(=O)F)cc1)C(=O)O [compound 373] | 68 | – | –
11 | COc1ccc([N+](=O)[O-])c2c1CCN2C(=O)CC[C@H](N)C(=O)O [compound 374] | 43 | – | –
12 | N[C@@H](CCCNC(=O)NCc1ccccc1[N+](=O)[O-])C(=O)O [compound 375] | – | ++ (“++” greater than 60%) | –
13 | CCCCCC[C@H](N)C(=O)O [compound 376] | – | ++ (“++” greater than 60%) | –
14 | CC(=O)CCCSC[C@H](N)C(=O)O [compound 377] | – | ++ (“++” greater than 60%) | –
15 | C=CCCCCSC[C@H](N)C(=O)O [compound 378] | – | ++ (“++” greater than 60%) | –
16 | CCCCCCSC[C@H](N)C(=O)O [compound 379] | – | ++ (“++” greater than 60%) | –
17 | CCCCSC[C@H](N)C(=O)O [compound 380] | – | ++ (“++” greater than 60%) | –
18 | CCCCCSC[C@H](N)C(=O)O [compound 381] | 83 | – | –
19 | CCCCCCSC[C@H](N)C(=O)O [compound 382] | 87 | – | –
20 | CCCCCCCSC[C@H](N)C(=O)O [compound 383] | 74 | – | –
21 | CCCCCCCCSC[C@H](N)C(=O)O [compound 384] | – | ++ (“++” greater than 60%) | –
22 | C#CCCCSC[C@H](N)C(=O)O [compound 385] | – | ++ (“++” greater than 60%) | –
23 | C#CCCCCSC[C@H](N)C(=O)O [compound 386] | 77 | – | –
24 | [N-]=[N+]=NCCCSC[C@H](N)C(=O)O [compound 387] | – | ++ (“++” greater than 60%) | –
25 | [N-]=[N+]=NCCCCSC[C@H](N)C(=O)O [compound 388] | – | ++ (“++” greater than 60%) | –
26 | [N-]=[N+]=NCCCCCSC[C@H](N)C(=O)O [compound 389] | – | ++ (“++” greater than 60%) | –
27 | CN(C)c1cccc2c(S(=O)(=O)NC[C@H](N)C(=O)O)cccc12 [compound 390] | 73 | – | –
28 | CC(=O)c1ccc2cc(NC[C@H](N)C(=O)O)ccc2c1 [compound 391] | – | ++ (“++” greater than 60%) | –

Row | SMILES | Recoding rate (%) ([2]; numeric values) | Recoding rate (%) ([2]; class symbols) | further results
29 | N[C@@H](CNc1ccc2ccccc2c1)C(=O)O [compound 392] | – | ++ (“++” greater than 60%) | –
30 | CCSCCCC[C@H](N)C(=O)O [compound 393] | – | ++ (“++” greater than 60%) | –
31 | N[C@@H](CCCS)C(=O)O [compound 394] | – | ++ (“++” greater than 60%) | –
32 | N[C@@H](CCCCS)C(=O)O [compound 395] | – | ++ (“++” greater than 60%) | –
33 | CCCCCC[C@H](N)C(=O)O [compound 396] | 88 | – | –
34 | CCCCCCC[C@H](N)C(=O)O [compound 397] | 92 | – | –
35 | CCCCCCCC[C@H](N)C(=O)O [compound 398] | 85 | – | –
36 | COc1ccc(C[C@H](N)C(=O)O)cc1 [compound 400] | 92 | – | –
37 | N[C@@H](CSCc1ccccc1[N+](=O)[O-])C(=O)O [compound 401] | – | +++ (“+++” greater than 80%) | –
38 | CCOc1cc(COC[C@H](N)C(=O)O)c([N+](=O)[O-])cc1OCC [compound 402] | – | +++ (“+++” greater than 80%) | –
39 | CCOc1cc(CSC[C@H](N)C(=O)O)c([N+](=O)[O-])cc1OCC [compound 403] | 84 | – | –
40 | CCOc1cc(C[Se]CC(N)C(=O)O)c([N+](=O)[O-])cc1OCC (stereo not drawn) [compound 404] | 59 | – | –
41 | C=CC[S+]([O-])C[C@@H](N)C(=O)O (stereo partly drawn) [compound 405] | – | +++ (“+++” greater than 80%) | –
42 | C=CCCC[C@H](N)C(=O)O [compound 406] | – | +++ (“+++” greater than 80%) | –
43 | C=CCCCC[C@H](N)C(=O)O [compound 407] | 81 | – | –
44 | CC=CCOC[C@H](N)C(=O)O [compound 408] | – | +++ (“+++” greater than 80%) | –
45 | C=CCCCOC[C@H](N)C(=O)O [compound 409] | – | +++ (“+++” greater than 80%) | –
46 | CC(=O)N(C)CCCC[C@H](N)C(=O)O [compound 410] | 83 | – | –
47 | N[C@@H](Cc1c[nH]c2ccc(O)cc12)C(=O)O [compound 411] | 75 | – | –
48 | Cc1ccc2[nH]cc(C[C@H](N)C(=O)O)c2c1 [compound 412] | 37 | – | –
49 | COc1ccc2[nH]cc(C[C@H](N)C(=O)O)c2c1 [compound 413] | 85 | – | –
50 | N[C@@H](Cc1c[nH]c2ccc(Br)cc12)C(=O)O [compound 414] | – | + (“+” indicates a recoding efficiency greater than 40%) | –
51 | C#CCOc1ccc2[nH]cc(C[C@H](N)C(=O)O)c2c1 [compound 415] | – | + (“+” indicates a recoding efficiency greater than 40%) | –
52 | [N-]=[N+]=Nc1ccc2[nH]cc(C[C@H](N)C(=O)O)c2c1 [compound 416] | – | + (“+” indicates a recoding efficiency greater than 40%) | –
53 | Nc1ccc2[nH]cc(C[C@H](N)C(=O)O)c2c1 [compound 417] | – | + (“+” indicates a recoding efficiency greater than 40%) | –
54 | N[C@@H](Cc1c[nH]c2cccc(F)c12)C(=O)O [compound 418] | 82 | – | –
55 | N[C@@H](Cc1ccc(OS(=O)(=O)O)cc1)C(=O)O [sTyr] | – | – | recoding efficiency [1]: 85%

From patent US20250327074A1 (SHAOXING INSTITUTE, ZHEJIANG UNIVERSITY, priority 2024, published 2025)
